The values that follow come from patent US11512069B2, “TLR7/8 antagonists and uses thereof” (Merck Patent GmbH, priority 2016, dated 2022).

Molecules are shown by their SMILES.

The target of this test is T1, TLR7 (Homo sapiens, UniProt Q9NYK1).
T1 construct: expressed in transfected cells; host or cells: HEK cells carrying TLR7 and an NF-kB reporter read with Steady-Glo
T1 sequence (Q9NYK1 27-1049): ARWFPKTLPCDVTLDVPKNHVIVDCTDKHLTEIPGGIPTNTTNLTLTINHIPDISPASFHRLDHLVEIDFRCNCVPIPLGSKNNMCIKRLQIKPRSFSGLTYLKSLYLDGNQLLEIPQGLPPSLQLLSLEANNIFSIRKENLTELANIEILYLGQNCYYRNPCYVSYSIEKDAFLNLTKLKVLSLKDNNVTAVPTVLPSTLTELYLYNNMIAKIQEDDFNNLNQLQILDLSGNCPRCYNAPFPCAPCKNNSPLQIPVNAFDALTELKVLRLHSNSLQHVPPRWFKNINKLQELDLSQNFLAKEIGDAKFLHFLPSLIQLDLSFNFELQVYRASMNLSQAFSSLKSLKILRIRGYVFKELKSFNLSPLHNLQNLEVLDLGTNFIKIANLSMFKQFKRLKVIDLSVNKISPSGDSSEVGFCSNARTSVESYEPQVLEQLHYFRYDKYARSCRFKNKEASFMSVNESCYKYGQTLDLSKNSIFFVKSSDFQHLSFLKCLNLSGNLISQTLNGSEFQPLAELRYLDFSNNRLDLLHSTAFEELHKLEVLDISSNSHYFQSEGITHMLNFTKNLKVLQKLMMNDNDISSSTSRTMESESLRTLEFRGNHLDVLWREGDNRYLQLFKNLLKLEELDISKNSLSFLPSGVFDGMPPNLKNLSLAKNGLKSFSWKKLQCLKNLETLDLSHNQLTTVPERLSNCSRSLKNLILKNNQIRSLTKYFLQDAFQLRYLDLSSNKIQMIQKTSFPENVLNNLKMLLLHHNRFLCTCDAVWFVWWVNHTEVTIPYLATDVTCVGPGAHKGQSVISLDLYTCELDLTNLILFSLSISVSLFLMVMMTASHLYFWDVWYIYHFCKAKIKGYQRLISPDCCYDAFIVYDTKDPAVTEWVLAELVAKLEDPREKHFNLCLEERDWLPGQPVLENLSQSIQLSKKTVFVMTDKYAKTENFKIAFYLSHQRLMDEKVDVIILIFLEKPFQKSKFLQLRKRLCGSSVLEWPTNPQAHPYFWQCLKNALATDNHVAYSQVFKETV
The test is described as follows: HEK Cell Assay (TLR7/NFKb HEK reporter cells, Steady-Glo). It counts as cell-based. To be noted: compound 30 min, then R*48 agonist 5 hours, Steady-Glo readout, read-out: Potency. The procedure:
Example 32: HEK Cell Assay
Into 384 CulturePlates (Corning 3707) was placed 5000 c/w of TLR7/NFKb HEK cells in 30 uL DMEM without Phenil red (gibco #31053) and 10% i.a. FCS and 2 mM L-ZGLutamin. The cells were incubated for 24 h at 37 degrees Celsius, 10% carbon dioxide and 90% relative humidity, 3 uL of controls, standards, and compounds were dispensed to wells, incubated for 30 min then 3 uL of R*48 agonist in 20 mM Hepes was added. After incubation for 5 hours, it was allowed to stand at room temperature for 15 min, 10 uL of Steady-Glo substrate reagent was added and shake assay plate for 5 min at 1500 rpm. The assay plate was allowed to sit for 30 min at room temperature and then read plate on EnVision.

As for `C[C@@H]1C[C@@H](c2ccc(C#N)c3ncccc23)CN(C(=O)CN2CCN(C)CC2)C1` (relative stereo) [Compound 30], the IC50 is under 1 µM. The figure for `C[C@@H]1C[C@H](c2ccc(C#N)c3ncccc23)CN(C(=O)C2CN(C)C2)C1` (relative stereo) [Compound 31] is 1 to 20 µM; for `C[C@@H]1C[C@@H](c2ccc(C#N)c3ncccc23)CN(C(=O)C2CN(C)C2)C1` (relative stereo) [Compound 32] it is 1 to 20 µM; for `C[C@@H]1C[C@H](c2ccc(C#N)c3ncccc23)CN(C(=O)CN2CCC2)C1` (relative stereo) [Compound 33] it is 1 to 20 µM. The result for `C[C@@H]1C[C@H](c2ccc(C#N)c3ncccc23)CN(C(=O)CC2CN(C)C2)C1` (relative stereo) [Compound 34, cis-1-Methyl-1-[2-(1-methyl-azetidin-3-yl)-acetyl]-piperidin-3-yl-quinoline-8-carbonitrile] reads 1 to 20 µM. The figure for `C[C@@H]1C[C@H](c2ccc(C#N)c3ncccc23)CN(C(=O)c2ccc(N3CCC3)nc2)C1` (relative stereo) [Compound 36, cis-5-[1-(6-Azetidin-1-yl-pyridine-3-carbonyl)-5-methyl-piperidin-3-yl]-quinoline-8-carbonitrile] is over 20 µM; for `C[C@@H]1C[C@H](c2ccc(C#N)c3ncccc23)CN(C(=O)C2CCC(F)(F)CC2)C1` (relative stereo) [Compound 37, cis-5-[1-(4,4-Difluoro-cyclohexanecarbonyl)-5-methyl-piperidin-3-yl]-quinoline-8-carbonitrile] it is over 20 µM. Regarding `C[C@@H]1C[C@H](c2ccc(C#N)c3ncccc23)CN(C(=O)c2cc3n(n2)CCC3)C1` (relative stereo) [Compound 38, cis-5-[1-(5,6-Dihydro-4H-pyrrolo[1,2-b]pyrazole-2-carbonyl)-5-methyl-piperidin-3-yl]-quinoline-8-carbonitrile], the IC50 is over 20 µM. The result for `C[C@@H]1C[C@H](c2ccc(C#N)c3ncccc23)CN(C(=O)C2CCN(C)CC2)C1` (relative stereo) [Compound 39, cis-5-[5-Methyl-1-(1-methyl-piperidine-4-carbonyl)-piperidin-3-yl]-quinoline-8-carbonitrile] reads 1 to 20 µM. On to `C[C@@H]1C[C@H](c2ccc(C(F)(F)F)c3ncccc23)CN(C(=O)NC2CC2)C1` (relative stereo) [Compound 40, cis-Cyclopropyl-3-methyl-5-[8-(trifluoromethyl)-5-quinolyl] piperidine-1-carboxamide], for which the IC50 lay within 1 to 20 µM.

Regarding `C[C@@H]1C[C@@H](c2ccc(C(F)(F)F)c3ncccc23)CN(C(=O)NC2CC2)C1` (relative stereo) [Compound 41, trans-Cyclopropyl-3-methyl-5-[8-(trifluoromethyl)-5-quinolyl] piperidine-1-carboxamide], the IC50 was in the range of 1 to 20 µM.

In the case of `C[C@@H]1C[C@H](c2ccc(C#N)c3ncccc23)CN(C(=O)CC2(N)CC2)C1` (relative stereo) [Compound 62, Cis-1-[2-(1-Amino-cyclopropyl)-acetyl]-5-methyl-piperidin-3-yl-quinoline-8-carbonitrile], the IC50 is 1 to 20 µM.

Regarding `C[C@H]1C[C@H](c2ccc(C#N)c3ncccc23)CN(C(=O)CC2(N)CC2)C1` (relative stereo) [Compound 63, Trans-1-[2-(1-Amino-cyclopropyl)-acetyl]-5-methyl-piperidin-3-yl-quinoline-8-carbonitrile], the IC50 fell in the range of 1 to 20 µM. The result for `C[C@H]1C[C@H](c2ccc(C#N)c3ncccc23)CN(CC(N)=O)C1` (relative stereo) [Compound 66] reads over 20 µM; that for `C[C@@H]1C[C@H](c2ccc(C#N)c3ncccc23)CN(CC(N)=O)C1` (relative stereo) [Compound 67], over 20 µM; that for `C[C@@H]1C[C@H](c2ccc(C#N)c3ncccc23)CN(CC(=O)NC2CCN(C)CC2)C1` (relative stereo) [Compound 68, cis-2-[3-(8-Cyano-quinolin-5-yl)-5-methyl-piperidin-1-yl]-N-(1-methyl-piperidin-4-yl)-acetamide], 1 to 20 µM. The figure for `C[C@@H]1C[C@@H](c2ccc(C#N)c3ncccc23)CN(CC(=O)NC2CCN(C)CC2)C1` (relative stereo) [Compound 69, trans-2-[3-(8-Cyano-quinolin-5-yl)-5-methyl-piperidin-1-yl]-N-(1-methyl-piperidin-4-yl)-acetamide] is 1 to 20 µM. The figure for `C[C@@H]1C[C@H](c2ccc(C#N)c3ncccc23)CN(CC(=O)N2CCC(N(C)C)CC2)C1` (relative stereo) [Compound 70, cis-5-(1-{2-[4-(dimethylamino)piperidin-1-yl]-2-oxoethyl}-5-methylpiperidin-3-yl) quinoline-8-carbonitrile] is 1 to 20 µM. For `C[C@@H]1C[C@@H](c2ccc(C#N)c3ncccc23)CN(CC(=O)N2CCC(N(C)C)CC2)C1` (relative stereo) [Compound 71, trans-5-(1-{2-[4-(dimethylamino)piperidin-1-yl]-2-oxoethyl}-5-methylpiperidin-3-yl) quinoline-8-carbonitrile], the IC50 lay in the range of 1 to 20 µM. The figure for `C[C@@H]1C[C@H](c2ccc(C#N)c3ncccc23)CN(CC(=O)NCCN2CCN(C)CC2)C1` (relative stereo) [Compound 72, cis-2-[3-(8-Cyano-quinolin-5-yl)-5-methyl-piperidin-1-yl]-N-[2-(4-methyl-piperazin-1-yl)-ethyl]-acetamide] is 1 to 20 µM.

With `C[C@@H]1C[C@@H](c2ccc(C#N)c3ncccc23)CN(CC(=O)NCCN2CCN(C)CC2)C1` (relative stereo) [Compound 73, trans-2-[3-(8-Cyano-quinolin-5-yl)-5-methyl-piperidin-1-yl]-N-[2-(4-methyl-piperazin-1-yl)-ethyl]-acetamide], the IC50 was 1 to 20 µM. Take `C[C@@H]1C[C@H](c2ccc(C#N)c3ncccc23)CN(CC(=O)NCC2CCN(C)CC2)C1` (relative stereo) [Compound 74, cis-2-[3-(8-Cyano-quinolin-5-yl)-5-methyl-piperidin-1-yl]-N-(1-methyl-piperidin-4-ylmethyl)-acetamide]: the IC50 is 1 to 20 µM.

As for `C[C@@H]1C[C@@H](c2ccc(C#N)c3ncccc23)CN(CC(=O)NCC2CCN(C)CC2)C1` (relative stereo) [Compound 75, trans-2-[3-(8-Cyano-quinolin-5-yl)-5-methyl-piperidin-1-yl]-N-(1-methyl-piperidin-4-ylmethyl)-acetamide], the IC50 fell in the range of 1 to 20 µM. In the case of `C[C@@H]1C[C@H](c2ccc(C#N)c3ncccc23)CN(CC(=O)Nc2cnn(C)c2)C1` (relative stereo) [Compound 76, cis-2-[3-(8-Cyano-quinolin-5-yl)-5-methyl-piperidin-1-yl]-N-(1-methyl-1H-pyrazol-4-yl)-acetamide], the IC50 was over 20 µM. The figure for `C[C@@H]1C[C@@H](c2ccc(C#N)c3ncccc23)CN(CC(=O)Nc2cnn(C)c2)C1` (relative stereo) [Compound 77, trans-2-[3-(8-Cyano-quinolin-5-yl)-5-methyl-piperidin-1-yl]-N-(1-methyl-1H-pyrazol-4-yl)-acetamide] is over 20 µM; for `C[C@@H]1C[C@H](c2ccc(C#N)c3ncccc23)CN(C(=O)CC2[C@H]3CN(C)C[C@@H]23)C1` (relative stereo) [Compound 79] it is under 1 µM; for `C[C@@H]1C[C@H](c2ccc(C#N)c3ncccc23)CN(C(=O)Cc2cnn(C)c2)C1` (relative stereo) [Compound 107, cis-5-Methyl-1-[2-(1-methyl-1H-pyrazol-4-yl)-acetyl]-piperidin-3-yl-quinoline-8-carbonitrile] it is over 20 µM. As to `C[C@@H]1C[C@H](c2ccc(C#N)c3ncccc23)CN(C(=O)c2cnn(C)c2)C1` (relative stereo) [Compound 108, cis-5-Methyl-1-(1-methyl-H-pyrazole-4-carbonyl)-piperidin-3-yl-quinoline-8-carbonitrile], the IC50 lay in the range of 1 to 20 µM.
